Data: patent EP2666869A1 (priority 2012, dated 2013)
Where “and” joins values, the source holds several entries; their conditions need not be identical. Equal entries are not always repeated. Where two headings read alike, the source gives them in different places.

Assays:
[1] = Sorafenib pharmacokinetic analysis (plasma concentrations, Bayesian estimation of AUC and Cav); type: in vivo, human; details: for AUC at 720 h: Cumulated sorafenib AUC, day 0 to day 30; for AUC tau at 720 h: day 30
Source text: (§1) Adverse events were reported and graded according to the National Cancer Institute Common Terminology Criteria (NCI-CTCAE) on days 15 and 30 after treatment initiation. Diarrhea and HFSR were graded according to the NCI-CTCAE 3.0 version, while hypertension was retrospectively graded according to the 4.0 version. In case of grade 4 hematological toxicity or grade 3 or 4 non-hematological toxicity, treatment was discontinued until side effects recovered to grade 1, or returned to baseline. Subsequent dose reductions were left at the discretion of the treating physician.
This Bayesian estimator is based on a 1-compartment model with saturated absorption, first-order intestinal loss and linear elimination.
For descriptive statistics, qualitative variables were expressed in numbers and percentages and quantitative ones in medians [inter-quartile intervals]. Glomerular filtration rate (GFR) and lean body mass (LBM) were estimated using the Modification of the Diet in Renal Disease (MDRD) formula and the Green's formula, respectively. […] Then, the relationships between the dose-standardized AUC and other variables were tested using two-sample Wilcoxon tests or Kruskal-Wallis tests for qualitative variables with two modalities or more than two modalities, respectively, and by Spearman rank correlation coefficient tests for quantitative ones. The following variables were tested: age, gender, ECOG status, weight, body mass index (BMI), LBM, primary tumor site, polymorphisms of CYP3A5 (rs776746), UGT1A9 (rsl78868320, rs6714486, rs72551330), ABCB1 (rs2231137, rs1045642), ABCG2 (rs2231137, rs2231142, rs2622604), alanine aminotransferase (ALT), aspartate aminotransferase (AST), alkaline phosphatase (ALP), gamma-glutamyl transpeptidase (GGT), bilirubin, albumin, C-Reactive Protein, creatinine and MDRD GFR. A stepwise multiple linear regression was then performed with variables significant with p < 0.10 in the first step included in the regression and variables significant with p < 0.05 kept in the final model. […] The cumulated AUC between day 0 and day 30 was calculated as the sum of two areas, (0-15 days) and (15-30 days) which were estimated using the trapezoidal rule. The area was multiplied by 24 to express the result in mg/L.h. […] On day 0, Cav0 was fixed at 0 mg/L.

[2] = Toxicity assessment (NCI-CTCAE grading) and risk factor analysis in the first month of sorafenib treatment; type: in vivo, human
Source text: as §1
For descriptive statistics, qualitative variables were expressed in numbers and percentages and quantitative ones in medians [inter-quartile intervals]. Glomerular filtration rate (GFR) and lean body mass (LBM) were estimated using the Modification of the Diet in Renal Disease (MDRD) formula and the Green's formula, respectively. […] Then, the relationships between the dose-standardized AUC and other variables were tested using two-sample Wilcoxon tests or Kruskal-Wallis tests for qualitative variables with two modalities or more than two modalities, respectively, and by Spearman rank correlation coefficient tests for quantitative ones. The following variables were tested: age, gender, ECOG status, weight, body mass index (BMI), LBM, primary tumor site, polymorphisms of CYP3A5 (rs776746), UGT1A9 (rsl78868320, rs6714486, rs72551330), ABCB1 (rs2231137, rs1045642), ABCG2 (rs2231137, rs2231142, rs2622604), alanine aminotransferase (ALT), aspartate aminotransferase (AST), alkaline phosphatase (ALP), gamma-glutamyl transpeptidase (GGT), bilirubin, albumin, C-Reactive Protein, creatinine and MDRD GFR. A stepwise multiple linear regression was then performed with variables significant with p < 0.10 in the first step included in the regression and variables significant with p < 0.05 kept in the final model. For the analysis of sorafenib-induced toxicities in the first month of treatment, we used dichotomous end points expressed as any toxicity ≥ grade 3 (yes or no), or grade ≥ 2 HFSR (yes or no), or grade ≥ 2 diarrhea (yes or no), or grade ≥ 2 hypertension (yes or no). The cumulated AUC between day 0 and day 30 was calculated as the sum of two areas, (0-15 days) and (15-30 days) which were estimated using the trapezoidal rule. The area was multiplied by 24 to express the result in mg/L.h. […] On day 0, Cav0 was fixed at 0 mg/L.
The univariate analysis of toxicity risk factors was carried out using two sample Wilcoxon tests for quantitative variables and Chi square or Fisher exact tests for qualitative ones. Fisher exact tests were performed as soon as at least one expected value was lower than 5. […] The multivariate analysis was performed by a stepwise logistic regression. Variables with p-values < 0.10 in the univariate analysis were included in the regression and variables with a Wald test p-value < 0.05 were kept in the final model. All the tests were two-sided, and they were considered significant when p-values were < 0.05. The receiver operating characteristic (ROC) curve was constructed to examine the value of an AUCcum threshold predicting a toxicity of grade ≥ 3 in the first month of treatment. The diagnostic accuracy values of sensitivity and specificity were determined, as well as the positive predictive value (PPV) and the negative predictive value (NPV). Computations were performed using the SAS V9 statistical package (SAS institute, Cary, NC).

[3] = AUCcum threshold value of 3,161 mg/L.h, toxicity of grade ≥ 3

CNC(=O)c1cc(Oc2ccc(NC(=O)Nc3ccc(Cl)c(C(F)(F)F)c3)cc2)ccn1 [sorafenib]
Spearman's coefficient (rho) ([1]; dose-normalized AUC day 15 versus Creatinine (µmol/L)): -0.26 | Spearman's coefficient (rho) ([1]; dose-normalized AUC day 15 versus LBM (kg)): -0.28 | AUC at 720 h ([1]; human, plasma, patients with Hand Foot Skin Reaction ≥ grade 2, median [interquartile range]): 3310 µg·h/mL | AUC at 720 h ([1]; human, plasma, patients with any toxicity ≥ grade 3, median [interquartile range]): 3500 µg·h/mL | AUC at 720 h ([1]; human, plasma, patients without Hand Foot Skin Reaction ≥ grade 2, median [interquartile range]): 2250 µg·h/mL | AUC at 720 h ([1]; human, plasma, patients without any toxicity ≥ grade 3, median [interquartile range]): 2250 µg·h/mL | AUC tau at 360 h ([1]; human, plasma, day 15, females, read-out: median absolute AUC): 78.3 µg·h/mL | AUC tau at 360 h ([1]; human, plasma, day 15, males, read-out: median absolute AUC): 52.4 µg·h/mL | AUC tau at 720 h ([1]; human, plasma, females, read-out: median absolute AUC): 82.2 µg·h/mL | AUC tau at 720 h ([1]; human, plasma, males, read-out: median absolute AUC): 55.2 µg·h/mL | AUC tau at 12 h ([1]; human, plasma, median absolute sorafenib AUC, day 15, all patients, AUC 0 to 12 hours, median [interquartile range]): 62 µg·h/mL | AUC tau at 720 h ([1]; human, plasma, median absolute sorafenib AUC, all patients, median [interquartile range]): 61 µg·h/mL | NPV [2, 3]: 63.3% | PPV [2, 3]: 75.8% | area under the ROC curve for the AUCcum threshold ([2]; CI 95%, 61-78%): 69% | Any toxicity ≥ grade 3: No ([2]; CYP3A5 6986 A>G AA (*1/*1)): 0 (0) n (%) | Any toxicity ≥ grade 3: Yes ([2]; CYP3A5 6986 A>G AA (*1/*1)): 4 (100) n (%) | Any toxicity ≥ grade 3: No ([2]; CYP3A5 6986 A>G AG (*1/*3)): 6 (67) n (%) | Any toxicity ≥ grade 3: Yes ([2]; CYP3A5 6986 A>G AG (*1/*3)): 3 (33) n (%) | Any toxicity ≥ grade 3: No ([2]; CYP3A5 6986 A>G GG (*3/*3)): 24 (63) n (%) | Any toxicity ≥ grade 3: Yes ([2]; CYP3A5 6986 A>G GG (*3/*3)): 14 (37) n (%) | Any toxicity ≥ grade 3: No ([2]; Female): 5 (33.3) n (%) | Any toxicity ≥ grade 3: Yes ([2]; Female): 10 (66.7) n (%) | Hand Foot Skin Reaction ≥ grade 2: No ([2]; Female): 5 (33.3) n (%) | Hand Foot Skin Reaction ≥ grade 2: Yes ([2]; Female): 10 (66.7) n (%) | Any toxicity ≥ grade 3: No ([2]; Male): 25 (67.6) n (%) | Any toxicity ≥ grade 3: Yes ([2]; Male): 12 (32.4) n (%) | Hand Foot Skin Reaction ≥ grade 2: No ([2]; Male): 25 (52.0) n (%) | Hand Foot Skin Reaction ≥ grade 2: Yes ([2]; Male): 12 (48.0) n (%) | Occurrence during first month of treatment: Diarrhea ([2]; No): 37 (69) n (%) | Occurrence during first month of treatment: Hypertension ([2]; No): 28 (52) n (%) | Occurrence during first month of treatment: Hand-foot skin reaction ([2]; No, 54 patients): 17 (31) n (%) | AUCcum threshold predicting a toxicity of grade ≥ 3 ([2]; ROC curve, first month of treatment): 3,161 mg/L.h | Diarrhea ≥ grade 2: No ([2]; UGT1A9 -275 T>A m/m): 0 (0) n (%) | Diarrhea ≥ grade 2: Yes ([2]; UGT1A9 -275 T>A m/m): 0 (0) n (%) | Diarrhea ≥ grade 2: No ([2]; UGT1A9 -275 T>A wt/m): 2 (50) n (%) | Diarrhea ≥ grade 2: Yes ([2]; UGT1A9 -275 T>A wt/m): 2 (50) n (%) | Diarrhea ≥ grade 2: No ([2]; UGT1A9 -275 T>A wt/wt): 43 (93) n (%) | Diarrhea ≥ grade 2: Yes ([2]; UGT1A9 -275 T>A wt/wt): 3 (7) n (%) | Diarrhea ≥ grade 2: No ([2]; UGT1A9 -2152 C>T m/m): 0 (0) n (%) | Diarrhea ≥ grade 2: Yes ([2]; UGT1A9 -2152 C>T m/m): 0 (0) n (%) | Diarrhea ≥ grade 2: No ([2]; UGT1A9 -2152 C>T wt/m): 2 (50) n (%) | Diarrhea ≥ grade 2: Yes ([2]; UGT1A9 -2152 C>T wt/m): 2 (50) n (%) | Diarrhea ≥ grade 2: No ([2]; UGT1A9 -2152 C>T wt/wt): 42 (93) n (%) | Diarrhea ≥ grade 2: Yes ([2]; UGT1A9 -2152 C>T wt/wt): 3 (7) n (%) | Occurrence during first month of treatment: Diarrhea ([2]; Yes): 17 (31) n (%) | Occurrence during first month of treatment: Hypertension ([2]; Yes): 25 (46) n (%) | Occurrence during first month of treatment: Hand-foot skin reaction ([2]; Yes, 54 patients): 37 (69) n (%) | Occurrence during first month of treatment: Diarrhea ([2]; grade < 2): 12 n (%) | Occurrence during first month of treatment: Hand-foot skin reaction ([2]; grade < 2): 15 n (%) | Occurrence during first month of treatment: Hypertension ([2]; grade < 2): 5 n (%) | Occurrence during first month of treatment: Diarrhea ([2]; grade ≥ 2 (grade 2-3)): 5 (9%) n (%) and 5 n (%) | Occurrence during first month of treatment: Hand-foot skin reaction ([2]; grade ≥ 2 (grade 2-3)): 22 (41%) n (%) and 22 n (%) | Occurrence during first month of treatment: Hypertension ([2]; grade ≥ 2 (grade 2-3)): 20 (38%) n (%) and 20 n (%) | grade 3 or 4 toxicity: diarrhea ([2]; on days 15 or 30, 5% of the 22 patients with grade 3 or 4 toxicity): 1 n | grade 3 or 4 toxicity: hypertension ([2]; on days 15 or 30, 27% of the 22 patients with grade 3 or 4 toxicity): 6 n | grade 3 or 4 toxicity: HFSR ([2]; on days 15 or 30, 68% of the 22 patients with grade 3 or 4 toxicity): 15 n | patients who experienced grade 3 or 4 toxicity ([2]; on days 15 or 30, twenty-two of 54 patients): 41% | patients who required dose reductions because of toxic effects ([2]; over the study period): 9 n | patients who required interruption of treatment because of toxic effects ([2]; over the study period): 10 n | patients who required dose reductions or interruption of treatment because of toxic effects ([2]; over the study period, nineteen patients): 35% | toxic death in relation with sorafenib ([2]; study period): no toxic death
